Structures are written as SMILES. Converted amounts (≈) assume the structure as drawn. Numbered stars: 1 amine (or outer) side, 2 acyl side, 3 side chain; on linkers, the order of the positions; unused ones are H or OH. Bridge positions count the residues as written; N and C are the ends. Square brackets hold non-standard residues; d marks the D form. Peptide text beside a SMILES is read from it. * marks the point of attachment. hTyr(3S-OH,4S-OH,3'-OSO3H) = N[C@H](C(=O)O)[C@H](O)[C@@H](O)c1ccc(O)c(OS(=O)(=O)O)c1; pTerphenylCO(4''-OnC5H11) = CCCCCOc1ccc(-c2ccc(-c3ccc(C(=O)*)cc3)cc2)cc1; Orn(4R-OH,5R-OH) = O=C([C@H](C[C@@H](O)[C@@H](O)N[*:3])N[*:1])[*:2]; hTyr(3S-OH,4S-OH) = N[C@H](C(=O)O)[C@H](O)[C@@H](O)c1ccc(O)cc1; Pro(3S-OH,4S-Me) = C[C@H]1CN[C@H](C(=O)O)[C@H]1O; X1 = CCCCCOc1ccc(-c2cc(-c3ccc(C(=O)*)cc3)no2)cc1; Gln(3R-OH) = NC(=O)C[C@@H](O)[C@H](N)C(=O)O; Hyp = O=C(O)[C@@H]1C[C@@H](O)CN1

The text below walks through data of ChEMBL document CHEMBL4715849, “Recent Progress in the Discovery of Antifungal Agents Targeting the Cell Wall” (J Med Chem, 2020).

The subject of series [1] is Candida tropicalis. The experiment in a line: Antifungal activity against Candida tropicalis K337 by agar incorporation method. The series is classed as functional.
The subject of series [2] is Candida parapsilosis. The experiment in a line: Antifungal activity against Candida parapsilosis K1154 by agar incorporation method. The series is classed as functional. As to conditions: Lodderomyces parapsilosis.
Series [3] has as its system Candida tropicalis. The experiment in a line: Antifungal activity against Candida tropicalis K1155 by agar incorporation method. The series is classed as functional.
Series [4] has as its system Candida albicans. In words: Antifungal activity against Candida albicans K1133 by agar incorporation method. The series is classed as functional.
For series [5], the system named is Candida albicans. In words: Antifungal activity against Candida albicans K335 by agar incorporation method. The series is classed as functional.
Series [6] deals with Candida albicans. In words: Antifungal activity against Candida albicans K1082 by agar incorporation method. The series is classed as functional.
The subject of series [7] is Candida albicans. In words: Antifungal activity against Candida albicans K341 by agar incorporation method. The series is classed as functional.
Series [8] relates to Candida parapsilosis. The experiment in a line: Antifungal activity against Candida parapsilosis K332 by agar incorporation method. The series is classed as functional. As to conditions: Lodderomyces parapsilosis.
Series [9] relates to Meyerozyma guilliermondii. The experiment in a line: Antifungal activity against Candida guilliermondii K334 by agar incorporation method. The series is classed as functional.
For the next series, the system named is Pichia kudriavzevii. The experiment in a line: Antifungal activity against Candida krusei K1153 by agar incorporation method. The series is classed as functional.
The next series concerns Cyberlindnera jadinii. The experiment in a line: Antifungal activity against Candida utilis K482 by agar incorporation method. The note with it: Williopsis jadinii. The series is classed as functional.
Series [10] in a line: Inhibition of Candida albicans IFO1060 1,3-beta-D-glucan synthase.
Series [11] is described as follows: Elimination half life life in iv dosed human. As to conditions: in vivo.
The test system of series [12] is Candida albicans. The experiment in a line: Antifungal activity against Candida albicans CY1002 infected in iv dosed ICR mouse administered as single dose measured on day 7. The series is classed as functional. The note with it: 168 h, time 7 day.
Series [13] concerns Candida parapsilosis. The experiment in a line: Antifungal activity against Candida parapsilosis ATCC22019 by CLSI method. The series is classed as functional. The note with it: Lodderomyces parapsilosis.
Another series deals with Clavispora lusitaniae. In words: Antifungal activity against Candida lusitaniae MY1396 by CLSI method. The series is classed as functional.
Another series has as its system Nakaseomyces glabratus. In words: Antifungal activity against Candida glabrata MY1381 by CLSI method. The series is classed as functional.
Series [14] deals with Candida albicans. In words: Antifungal activity against Candida albicans Ca1055 by CLSI method. The series is classed as functional.
Series [15] concerns Candida albicans. In words: Antifungal activity against Candida albicans Ca2323/ORF6.945 by CLSI method. The series is classed as functional.
The nature of series [16]: Inhibition of fungi 1,3-beta-D-glucan synthase.
The subject of the next series is Aspergillus fumigatus. The experiment in a line: Antifungal activity against Aspergillus fumigatus CF1083 infected in iv dosed mouse model of pulmonary aspergillosis administered once daily for 4 days and measured on day 14. The series is classed as functional. As to conditions: 336 h, time 14 day.
Series [17] relates to Candida albicans. In words: Antifungal activity against Candida albicans infected in mouse assessed as protection against fungus-induced lethal infection. The series is classed as functional. As to conditions: read-out: PD50.

On to `CCC(O)/C=C/C=C/C=C/C(=O)OC[C@H]1O[C@@H](O[C@H]2[C@H](OC(=O)/C=C/C=C/C[C@H](O)/C(C)=C/C=C/CC[C@@H](C)CC)[C@@H](O)[C@@]3(OCc4cc(O)cc(O)c43)O[C@@H]2CO)[C@H](O)[C@@H](O)[C@H]1O` (some centres not stated), for which the MIC in the series on Candida tropicalis [1], against Candida parapsilosis [2], in the series on Candida tropicalis [3], with Candida albicans [4], in the series on Candida albicans [5] and against Candida albicans [6] was 0.1 µg/mL (≈ 0.111 µM) throughout. The MIC (with Candida albicans [7]; against Candida parapsilosis [8]; in [9]; in the series on Pichia kudriavzevii; against Cyberlindnera jadinii) was 0.1 µg/mL (≈ 0.111 µM) throughout.
Compound `CCCCCCCCCCCCC[C@H]1OC(=O)[C@H](CCCNC(=O)[C@H](N)CCCN)NC(=O)[C@@H]([C@@H](C)O)NC(=O)CNC(=O)[C@H]([C@H](O)CC(N)=O)NC(=O)[C@H]2[C@@H](O)CCN2C(=O)[C@H]([C@@H](C)O)NC(=O)[C@@H]2C[C@@H](O)CN2C(=O)[C@H](C(C)C)NC(=O)[C@H](Cc2ccc(O)cc2)NC(=O)[C@@H](C)NC(=O)[C@H]([C@@H](C)O)NC1=O` registered an IC50 in [10] of 5 nM.
For the compound `CCCCCOc1ccc(-c2ccc(-c3ccc(C(=O)N[C@H]4C[C@@H](O)[C@@H](O)NC(=O)[C@@H]5[C@@H](O)[C@@H](C)CN5C(=O)[C@H]([C@@H](C)O)NC(=O)[C@H]([C@H](O)[C@@H](O)c5ccc(O)cc5)NC(=O)[C@@H]5C[C@@H](O)CN5C(=O)[C@H]([C@@H](C)O)NC4=O)cc3)cc2)cc1` [ANIDULAFUNGIN] ({pTerphenylCO(4''-OnC5H11)}-[Orn(4R-OH,5R-OH)]T[Hyp][hTyr(3S-OH,4S-OH)]T[Pro(3S-OH,4S-Me)]; lactam 1-C), the half-life in series [11] was 24 h. For the same compound, the ED50 in the series on Candida albicans [12] is 0.22 mg/kg.
For the compound `COc1ccc(NC(=O)COc2cccc(OCC(C)C)c2)cc1`, the MIC against Candida parapsilosis [13] was determined as 2 µg/mL (≈ 6.07 µM); against Clavispora lusitaniae, 4 µg/mL (≈ 12.1 µM); against Nakaseomyces glabratus, 4 µg/mL (≈ 12.1 µM); against Candida albicans [14] it was 4 µg/mL (≈ 12.1 µM); against Candida albicans [15], 4 µg/mL (≈ 12.1 µM).
`CCCCCCCCCCCCC[C@H]1OC(=O)[C@H](CCCN(CCCN)C(=O)[C@@H](CCCN)N(CCN)CCN)NC(=O)[C@@H]([C@@H](C)O)NC(=O)CNC(=O)[C@H]([C@H](O)CC(N)=O)NC(=O)[C@H]2[C@@H](O)CCN2C(=O)[C@H]([C@@H](C)O)NC(=O)[C@@H]2C[C@@H](O)CN2C(=O)[C@H](C(C)C)NC(=O)[C@H](Cc2ccc(O)cc2)NC(=O)[C@@H](C)NC(=O)[C@H]([C@@H](C)O)NC1=O` gave an IC50 in [16] of 0.28 nM. In the series with Aspergillus fumigatus, the ED50 was found to be 5.2 mg/kg.
Turning to `COc1cc(O)c2c(c1)C(=O)c1c(cc3c(c1O)-c1c(cc(C)c(C(=O)N[C@H](CO)C(=O)O)c1O)[C@H](O[C@@H]1O[C@H](C)[C@H](O)[C@H](O[C@@H]4OC[C@@H](O)[C@H](O)[C@H]4O)[C@H]1O)[C@H]3O)C2=O`, the ED50 in the series with Candida albicans [17] is 33 mg/kg.
`CCCCCOc1ccc(-c2cc(-c3ccc(C(=O)N[C@H]4C[C@@H](O)[C@@H](O)NC(=O)[C@@H]5[C@@H](O)[C@@H](C)CN5C(=O)[C@H]([C@H](O)CC(N)=O)NC(=O)[C@H]([C@H](O)[C@@H](O)c5ccc(O)c(OS(=O)(=O)O)c5)NC(=O)[C@@H]5C[C@@H](O)CN5C(=O)[C@H]([C@@H](C)O)NC4=O)cc3)no2)cc1` [MICAFUNGIN] (X1-[Orn(4R-OH,5R-OH)]T[Hyp][hTyr(3S-OH,4S-OH,3'-OSO3H)][Gln(3R-OH)][Pro(3S-OH,4S-Me)]; lactam 1-C): the half-life in series [11] is 10 h.
The compound `CCCCCCCCCCCCC[C@H]1OC(=O)[C@H](CCCNC(=O)[C@@H](CCCN)N(CCN)CCN)NC(=O)[C@@H]([C@@H](C)O)NC(=O)CNC(=O)[C@H]([C@H](O)CC(N)=O)NC(=O)[C@H]2[C@@H](O)CCN2C(=O)[C@H]([C@@H](C)O)NC(=O)[C@@H]2C[C@@H](O)CN2C(=O)[C@H](C(C)C)NC(=O)[C@H](Cc2ccc(O)cc2)NC(=O)[C@@H](C)NC(=O)[C@H]([C@@H](C)O)NC1=O` had an IC50 in [16] of 0.9 nM. This compound gave an ED50 in the series with Aspergillus fumigatus of 5.2 mg/kg.
As to `CCCCC/C=C/C=C/C(=O)OC[C@H]1O[C@@H](O[C@H]2[C@H](OC(=O)/C=C/C=C/C[C@H](O)/C(C)=C/C=C/CC[C@@H](C)CC)[C@@H](O)[C@@]3(OCc4cc(O)cc(O)c43)O[C@@H]2CO)[C@H](O)[C@@H](O)[C@H]1O`, the MIC with Candida tropicalis [1], in the series on Candida parapsilosis [2], in the series on Candida tropicalis [3], with Candida albicans [4], with Candida albicans [5] and against Candida albicans [6] was 0.1 µg/mL (≈ 0.113 µM) throughout. For the same compound, the MIC (with Candida albicans [7]; with Candida parapsilosis [8]; in [9]; against Pichia kudriavzevii; in the series with Cyberlindnera jadinii) was 0.1 µg/mL (≈ 0.113 µM) in each case.
On to `COc1cc(O)c2c(c1)C(=O)c1c(cc3c(c1O)-c1c(cc(C)c(C(=O)NC(C)C(=O)O)c1O)[C@H](O[C@@H]1O[C@H](C)[C@H](O)[C@H](O[C@@H]4OC[C@@H](O)[C@H](O)[C@H]4O)[C@H]1O)[C@H]3O)C2=O` (some centres not stated), for which the ED50 in the series on Candida albicans [17] turned out to be 71 mg/kg.
